# System: 252836-082-R-J2-PDC tumor spheroids, viability
# Assay: Anticancer human tumor 252836-082-R-J2-PDC patient-derived head and neck squamous cell carcinoma cell line growth inhibition [PI3K]
# Details: spheroids with HUVEC and MSC; for viability, T/C: stronger effect = lower value
# Procedure, shortened: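 Tumor cells were combined with HUVEC and MSCs into spheroids, then dosed with PI3K-inhibitor combinations over half-log ranges capped near clinical Cmax or 10 microM.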
# [1] = curve of first compound, second compound 0.0316 µM
# [2] = curve of first compound, second compound 0.1 µM
# [3] = curve of first compound, second compound 0.316 µM
# [4] = curve of first compound, second compound 1 µM
# [5] = curve of first compound, second compound 3.16 µM
# [6] = curve of first compound, second compound 10 µM
# [7] = second compound 0.0316 µM, first compound 0.0316 µM
# [8] = second compound 0.0316 µM, first compound 0.1 µM
# [9] = second compound 0.0316 µM, first compound 0.316 µM
# [10] = second compound 0.0316 µM, first compound 1 µM
# [11] = second compound 0.0316 µM, first compound 3.16 µM
# [12] = second compound 0.0316 µM, first compound 10 µM
# [13] = second compound 0.1 µM, first compound 0.0316 µM
# [14] = second compound 0.1 µM, first compound 0.1 µM
# [15] = second compound 0.1 µM, first compound 0.316 µM
# [16] = second compound 0.1 µM, first compound 1 µM
# [17] = second compound 0.1 µM, first compound 3.16 µM
# [18] = second compound 0.1 µM, first compound 10 µM
# [19] = second compound 0.316 µM, first compound 0.0316 µM
# [20] = second compound 0.316 µM, first compound 0.1 µM
# [21] = second compound 0.316 µM, first compound 0.316 µM
# [22] = second compound 0.316 µM, first compound 1 µM
# [23] = second compound 0.316 µM, first compound 3.16 µM
# [24] = second compound 0.316 µM, first compound 10 µM
# [25] = second compound 1 µM, first compound 0.0316 µM
# [26] = second compound 1 µM, first compound 0.1 µM
# [27] = second compound 1 µM, first compound 0.316 µM
# [28] = second compound 1 µM, first compound 1 µM
# [29] = second compound 1 µM, first compound 3.16 µM
# [30] = second compound 1 µM, first compound 10 µM
# [31] = second compound 3.16 µM, first compound 0.0316 µM
# [32] = second compound 3.16 µM, first compound 0.1 µM
# [33] = second compound 3.16 µM, first compound 0.316 µM
# [34] = second compound 3.16 µM, first compound 1 µM
# [35] = second compound 10 µM, first compound 0.0316 µM
# [36] = second compound 10 µM, first compound 0.1 µM
# [37] = second compound 10 µM, first compound 0.316 µM
# [38] = second compound 10 µM, first compound 1 µM
# 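Note: spheroids exposed to agents for seven days before readout.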
# 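Throughout, for viability, T/C: percent of vehicle DMSO control viability so 100% = untreated growth.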
compound,measurement,setting,value
C#Cc1c(F)ccc2cc(O)cc(-c3ncc4c(N5CC6CCC(C5)N6)nc(OCC56CCCN5CC(F)C6)nc4c3F)c12 (stereo not given) + Cc1nc(NC(=O)N2CCCC2C(N)=O)sc1-c1ccnc(C(C)(C)C(F)(F)F)c1,IC50,[1],> 10 µM
same,IC50,[2],> 10 µM
same,IC50,[3],> 10 µM
same,IC50,[4],4.45 µM
same,IC50,[5],< 0.0316 µM
same,IC50,[6],< 0.0316 µM
same,"viability, T/C",[7],96.4%
same,"viability, T/C",[8],82.3%
same,"viability, T/C",[9],98.8%
same,"viability, T/C",[10],76.5%
same,"viability, T/C",[11],72.2%
same,"viability, T/C",[12],69.2%
same,"viability, T/C",[13],92.4%
same,"viability, T/C",[14],78.4%
same,"viability, T/C",[15],76.9%
same,"viability, T/C",[16],78%
same,"viability, T/C",[17],63.6%
same,"viability, T/C",[18],67.4%
same,"viability, T/C",[19],70.2%
same,"viability, T/C",[20],64.7%
same,"viability, T/C",[21],71.1%
same,"viability, T/C",[22],58.4%
same,"viability, T/C",[23],60.8%
same,"viability, T/C",[24],53.5%
same,"viability, T/C",[25],54.4%
same,"viability, T/C",[26],54.9%
same,"viability, T/C",[27],53.9%
same,"viability, T/C",[28],60.4%
same,"viability, T/C",[29],54.9%
same,"viability, T/C",[30],37.7%
same,"viability, T/C",[31],41.9%
same,"viability, T/C",[32],40.6%
same,"viability, T/C",[33],44.5%
same,"viability, T/C",[34],40.9%
same,"viability, T/C","second compound 3.16 µM, first compound 3.16 µM",39.7%
same,"viability, T/C","second compound 3.16 µM, first compound 10 µM",22%
same,"viability, T/C",[35],36.3%
same,"viability, T/C",[36],35.2%
same,"viability, T/C",[37],31.5%
same,"viability, T/C",[38],25%
same,"viability, T/C","second compound 10 µM, first compound 3.16 µM",25.7%
same,"viability, T/C","second compound 10 µM, first compound 10 µM",9.29%
CC(Cn1ccc(-c2ccc(C#N)c(Cl)c2)n1)NC(=O)c1cc(C(C)O)[nH]n1 (stereo not given),"viability, T/C",compound 0.0316 µM,93.6% [middle of 4 runs]
same,"viability, T/C",compound 0.1 µM,88.4% [middle of 4 runs]
same,"viability, T/C",compound 0.316 µM,98.8% [middle of 4 runs]
same,"viability, T/C",compound 1 µM,97.2% [middle of 4 runs]
same,"viability, T/C",compound 3.16 µM,92.5% [middle of 4 runs]
same,"viability, T/C",compound 10 µM,91.9% [middle of 4 runs]
same,IC50,curve of compound,> 10 µM
CCN1CCN(Cc2ccc(Nc3ncc(F)c(-c4cc(F)c5nc(C)n(C(C)C)c5c4)n3)nc2)CC1 + Cc1nc(NC(=O)N2CCCC2C(N)=O)sc1-c1ccnc(C(C)(C)C(F)(F)F)c1,IC50,[1],> 1 µM
same,IC50,[2],> 1 µM
same,IC50,[3],> 1 µM
same,IC50,[4],> 1 µM
same,IC50,[5],< 0.00316 µM
same,IC50,[6],< 0.00316 µM
same,"viability, T/C","second compound 0.0316 µM, first compound 0.00316 µM",101%
same,"viability, T/C","second compound 0.0316 µM, first compound 0.01 µM",94.1%
same,"viability, T/C",[7],80.8%
same,"viability, T/C",[8],80.5%
same,"viability, T/C",[9],91.3%
same,"viability, T/C",[10],87%
same,"viability, T/C","second compound 0.1 µM, first compound 0.00316 µM",84.2%
same,"viability, T/C","second compound 0.1 µM, first compound 0.01 µM",85%
same,"viability, T/C",[13],77.8%
same,"viability, T/C",[14],80.2%
same,"viability, T/C",[15],85.7%
same,"viability, T/C",[16],86.3%
same,"viability, T/C","second compound 0.316 µM, first compound 0.00316 µM",67.8%
same,"viability, T/C","second compound 0.316 µM, first compound 0.01 µM",74.8%
same,"viability, T/C",[19],64.7%
same,"viability, T/C",[20],69.9%
same,"viability, T/C",[21],59%
same,"viability, T/C",[22],68%
same,"viability, T/C","second compound 1 µM, first compound 0.00316 µM",58.3%
same,"viability, T/C","second compound 1 µM, first compound 0.01 µM",74.9%
same,"viability, T/C",[25],59.4%
same,"viability, T/C",[26],61.9%
same,"viability, T/C",[27],62.5%
same,"viability, T/C",[28],46.4%
same,"viability, T/C","second compound 3.16 µM, first compound 0.00316 µM",49.1%
same,"viability, T/C","second compound 3.16 µM, first compound 0.01 µM",39.4%
same,"viability, T/C",[31],43.5%
same,"viability, T/C",[32],40.2%
same,"viability, T/C",[33],44.2%
same,"viability, T/C",[34],43.1%
same,"viability, T/C","second compound 10 µM, first compound 0.00316 µM",35.4%
same,"viability, T/C","second compound 10 µM, first compound 0.01 µM",42.1%
same,"viability, T/C",[35],27.5%
same,"viability, T/C",[36],40.1%
same,"viability, T/C",[37],32%
same,"viability, T/C",[38],21.1%
CC(Cn1ccc(-c2ccc(C#N)c(Cl)c2)n1)NC(=O)c1cc(C(C)O)[nH]n1 (stereo not given) + COc1c(OCCCN2CCOCC2)ccc2c3n(c(=NC(=O)c4cnc(N)nc4)nc12)CCN3,IC50,"curve of first compound, second compound 0.00316 µM",> 10 µM
same,IC50,"curve of first compound, second compound 0.01 µM",> 10 µM
same,IC50,[1],> 10 µM
same,IC50,[2],< 0.0316 µM
same,IC50,[3],< 0.0316 µM
same,IC50,[4],< 0.0316 µM
same,"viability, T/C","second compound 0.00316 µM, first compound 0.0316 µM",102%
same,"viability, T/C","second compound 0.00316 µM, first compound 0.1 µM",90.5%
same,"viability, T/C","second compound 0.00316 µM, first compound 0.316 µM",101%
same,"viability, T/C","second compound 0.00316 µM, first compound 1 µM",94.4%
same,"viability, T/C","second compound 0.00316 µM, first compound 3.16 µM",91.4%
same,"viability, T/C","second compound 0.00316 µM, first compound 10 µM",84.9%
same,"viability, T/C","second compound 0.01 µM, first compound 0.0316 µM",81.7%
same,"viability, T/C","second compound 0.01 µM, first compound 0.1 µM",72.4%
same,"viability, T/C","second compound 0.01 µM, first compound 0.316 µM",87.2%
same,"viability, T/C","second compound 0.01 µM, first compound 1 µM",93.3%
same,"viability, T/C","second compound 0.01 µM, first compound 3.16 µM",93%
same,"viability, T/C","second compound 0.01 µM, first compound 10 µM",68.9%
same,"viability, T/C",[7],65.3%
same,"viability, T/C",[8],62.8%
same,"viability, T/C",[9],62.6%
same,"viability, T/C",[10],63.9%
same,"viability, T/C",[11],68.3%
same,"viability, T/C",[12],56.1%
same,"viability, T/C",[13],35.3%
same,"viability, T/C",[14],43.5%
same,"viability, T/C",[15],36.6%
same,"viability, T/C",[16],45.3%
same,"viability, T/C",[17],35.6%
same,"viability, T/C",[18],41.4%
same,"viability, T/C",[19],15.6%
same,"viability, T/C",[20],15.8%
same,"viability, T/C",[21],18.3%
same,"viability, T/C",[22],20.3%
same,"viability, T/C",[23],16.3%
same,"viability, T/C",[24],16.5%
same,"viability, T/C",[25],5.58%
same,"viability, T/C",[26],5.76%
same,"viability, T/C",[27],4.24%
same,"viability, T/C",[28],4.31%
same,"viability, T/C",[29],6.92%
same,"viability, T/C",[30],5.37%
CC(C)n1nc(-c2ccc3oc(N)nc3c2)c2c(N)ncnc21,"viability, T/C",compound 0.000316 µM,93.7% [middle of 4 runs]
same,"viability, T/C",compound 0.001 µM,91.8% [middle of 4 runs]
same,"viability, T/C",compound 0.00316 µM,87.4% [middle of 4 runs]
same,"viability, T/C",compound 0.01 µM,80.9% [middle of 4 runs]
same,"viability, T/C",compound 0.0316 µM,53.5% [middle of 4 runs]
same,"viability, T/C",compound 0.1 µM,23% [middle of 4 runs]
same,IC50,curve of compound,36.6 nM [middle of 4 runs]

# From PubChem BioAssay AID1963985 (Molecular Pharmacology Branch, DTP, NCI, 2024)
